Assay [1] deals with T1, GST tagged LXRalpha LBD (ligand binding domain) (Homo sapiens, UniProt Q13133).
T1 construct: purchased Invitrogen pv4655
T1 sequence (Q13133 209-447 limits assumed): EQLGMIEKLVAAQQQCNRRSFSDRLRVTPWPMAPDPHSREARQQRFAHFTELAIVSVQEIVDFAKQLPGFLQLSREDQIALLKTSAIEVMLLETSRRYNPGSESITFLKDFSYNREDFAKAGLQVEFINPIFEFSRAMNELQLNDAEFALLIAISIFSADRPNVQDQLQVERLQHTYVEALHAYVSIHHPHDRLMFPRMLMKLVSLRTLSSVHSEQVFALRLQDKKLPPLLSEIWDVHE
The experiment in a line: LanthaScreen TR-FRET Liver X Receptor Coactivator Assay, LXR alpha-LBD (co-activator recruitment; IP and % Emax relative to T0901317). The class given is biochemical. Conditions: for EC50 / LXR alpha IP (nM): Inflection Point of co-activator recruitment, LXR alpha-LBD, TR-FRET; for Emax: read-out: LXR alpha actiivty at max dose (%). In a few lines: (§1)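 TR-FRET coactivator recruitment; LBD + cpd, then fluorescein coactivator peptide/Tb anti-GST Ab mix; RT incubation; IP and Emax vs T0901317.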
In general terms: TR-FRET usually uses a lanthanide donor and a delayed reading to cut background.

The target in assay [2] is T2, GST tagged LXRbeta LBD (ligand binding domain) (Homo sapiens, UniProt P55055).
T2 construct: purchased Invitrogen pv4658.pps
T2 sequence (P55055 222-460 limits assumed): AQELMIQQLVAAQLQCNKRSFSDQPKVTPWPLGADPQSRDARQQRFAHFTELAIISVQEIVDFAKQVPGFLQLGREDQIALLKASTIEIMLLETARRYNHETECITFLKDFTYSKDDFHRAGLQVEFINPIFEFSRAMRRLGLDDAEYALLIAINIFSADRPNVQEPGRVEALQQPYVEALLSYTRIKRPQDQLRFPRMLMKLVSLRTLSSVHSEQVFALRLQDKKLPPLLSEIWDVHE
The experiment in a line: LanthaScreen TR-FRET Liver X Receptor Coactivator Assay, LXR beta-LBD (co-activator recruitment; IP and % Emax relative to T0901317). In kind it is biochemical. Conditions: for EC50: Inflection Point of co-activator recruitment, LXR beta-LBD, TR-FRET; for Emax: read-out: LXR beta actiivty at max dose (%). Summed up: as §1

The mark [3] stands for this setting: efficacy at max dose in relation to reference T0901317, LXR alpha-LBD.
[4] abbreviates: efficacy at max dose in relation to reference T0901317, LXR beta-LBD.

As usually defined, the EC50 is the concentration at which the effect is half-maximal. `CN(C)C(=O)c1ccc(N2CCC(CCCN(C)C(=O)[C@@](O)(c3ccccc3)C3CC3)CC2)nc1Cl` [Example 1-25, (S)-2-chloro-6-(4-(3-(2-cyclopropyl-2-hydroxy-N-methyl-2-phenylacetamido)propyl)piperidin-1-yl)-N,N-dimethylnicotinamide]: the half-maximal effective concentration (EC50) amounted to 3.36 µM in assay [1] and 0.11 µM in assay [2]. Moreover, the Emax came out at 26% in assay [1] (setting [3]) and 71% in assay [2] (setting [4]).

On to `CNC(=O)c1ccc(N2CCC3(CC2)CC(CN(C)C(=O)[C@](O)(c2cccc(OC)c2)C(F)(F)F)C3)nc1Cl` [Example 14-2, 2-chloro-N-methyl-6-(2-(((R)-3,3,3-trifluoro-2-hydroxy-2-(3-methoxyphenyl)-N-methylpropanamido)methyl)-7-azaspiro[3.5]nonan-7-yl)nicotinamide], for which the “LXR alpha IP (nM)” value in assay [1] was “No IP”. For the same compound, the Emax in assay [1] (setting [3]) worked out at 8%; in assay [2] (setting [4]), 30%. In addition, the response in assay [2] was half-maximal at 0.473 µM (EC50).

In the case of `CN(C)C(=O)c1ccc(N2CCC(CCCN(C)C(=O)C3(C(F)(F)F)CCCO3)CC2)nc1Cl` (stereo not drawn) [Example 1-56, 2-chloro-N,N-dimethyl-6-(4-(3-(N-methyl-2-(trifluoromethyl)tetrahydrofuran-2-carboxamido)propyl)piperidin-1-yl)nicotinamide], the EC50 is 2.61 µM in assay [1] and 0.168 µM in assay [2]. The Emax in assay [1] (setting [3]) was found to be 43%; in assay [2] (setting [4]), 80%.

For the compound `CN(C)C(=O)c1ccc(N2CCC(CCCNC(=O)C(O)(c3ccccc3)C(F)(F)F)CC2)cc1Cl` (stereo not drawn) [Example 5-1, 2-chloro-N,N-dimethyl-4-(4-(3-(3,3,3-trifluoro-2-hydroxy-2-phenylpropanamido)propyl)piperidin-1-yl)benzamide], the 50% effective concentration (EC50) was determined as 3.51 µM in assay [1] and 0.61 µM in assay [2]. The Emax was determined as 14% in assay [1] (setting [3]) and 95% in assay [2] (setting [4]).

Take `COc1cccc([C@@](O)(C(=O)NCCCC2CCN(c3ccc(C(=O)N(C)C)c(Cl)n3)CC2)C(F)(F)F)c1.O=C(O)C(F)(F)F` [Example 5-20, (R)-2-chloro-N,N-dimethyl-6-(4-(3-(3,3,3-trifluoro-2-hydroxy-2-(3-methoxyphenyl)propanamido)propyl)piperidin-1-yl)nicotinamide]: the “LXR alpha IP (nM)” value in assay [1] is listed as “No IP”. Besides, the Emax in assay [1] (setting [3]) stood at 17%; in assay [2] (setting [4]), 69%. This compound also registered an EC50 in assay [2] of 0.23 µM.

Take `COc1cccc([C@@](O)(C(=O)N(C)CC[C@@H]2CC23CCN(c2ccc(C(=O)N(C)C)c(Cl)c2)CC3)C(F)(F)F)c1` [Example 7-22, 2-chloro-N,N-dimethyl-4-((S)-1-(2-((R)-3,3,3-trifluoro-2-hydroxy-2-(3-methoxyphenyl)-N-methylpropanamido)ethyl)-6-azaspiro[2.5]octan-6-yl)benzamide]: the “LXR alpha IP (nM)” value in assay [1] is “No IP”. For the same compound, the Emax in assay [1] (setting [3]) is 3%; in assay [2] (setting [4]) it was 43%. Moreover, the EC50 in assay [2] was 0.572 µM.

Take `CN(C)C(=O)c1ccc(N2CCC(CCCN(C)C(=O)[C@](O)(c3cccc(C4CC4)c3)C(F)(F)F)CC2)cc1Cl` [Example 4-3, (R)-2-chloro-4-(4-(3-(2-(3-cyclopropylphenyl)-3,3,3-trifluoro-2-hydroxy-N-methylpropanamido)propyl)piperidin-1-yl)-N,N-dimethylbenzamide]: the “LXR alpha IP (nM)” value in assay [1] is given as “No IP”. In addition, the Emax in assay [1] (setting [3]) came out at 0%; in assay [2] (setting [4]), 53%. Further, the EC50 in assay [2] came to 0.067 µM.

As for `COc1cccc([C@@](O)(C(=O)N(C)CCCC2CCN(c3ccc(C(N)=O)c(Cl)n3)CC2)C(F)(F)F)c1` [Example 2-16, (R)-2-chloro-6-(4-(3-(3,3,3-trifluoro-2-hydroxy-2-(3-methoxyphenyl)-N-methylpropanamido)propyl)piperidin-1-yl)nicotinamide], the “LXR alpha IP (nM)” value in assay [1] was “No IP”. For the same compound, the Emax in assay [1] (setting [3]) was determined as 12%; in assay [2] (setting [4]) it was 54%. Besides, a half-maximal response in assay [2] (EC50) required 0.296 µM.

As for `CC(C)N(C)C(=O)c1ccc(N2CCC3(CC2)C[C@@H]3CCN(C)C(=O)[C@](O)(c2ccccc2)C(F)(F)F)cc1Cl` [Example 7-13, 2-chloro-N-isopropyl-N-methyl-4-((R)-1-(2-((R)-3,3,3-trifluoro-2-hydroxy-N-methyl-2-phenylpropanamido)ethyl)-6-azaspiro[2.5]octan-6-yl)benzamide], the EC50 in assay [1] amounted to 0.158 µM; in assay [2] it was 0.014 µM. The values for the Emax in assay [1] (setting [3]) and in assay [2] (setting [4]) were 32% and 55%, respectively.

Regarding `CN(C)C(=O)c1ccc(N2CCC3(CC2)CC3CCCN(C)C(=O)[C@](O)(c2ccccc2)C(F)(F)F)cc1Cl` (stereo partly drawn) [Example 7-33, 2-chloro-N,N-dimethyl-4-(1-(3-((R)-3,3,3-trifluoro-2-hydroxy-N-methyl-2-phenylpropanamido)propyl)-6-azaspiro[2.5]octan-6-yl)benzamide], the “LXR alpha IP (nM)” value in assay [1] is reported as “No IP”. The figures for the Emax in assay [1] (setting [3]) and in assay [2] (setting [4]) were 0% and 44%, respectively. This compound returned an EC50 in assay [2] of 0.136 µM.

In the case of `CN(C)C(=O)c1ccc(N2CCC(CCCNC(=O)[C@@]3(c4ccccc4)CCCO3)CC2)nc1Cl` [Example 5-18, (S)-2-chloro-N,N-dimethyl-6-(4-(3-(2-phenyltetrahydrofuran-2-carboxamido)propyl)piperidin-1-yl)nicotinamide], the “LXR alpha IP (nM)” value in assay [1] is “No IP”. Besides, the Emax came to 7% in assay [1] (setting [3]) and 66% in assay [2] (setting [4]). In assay [2], this compound registered an EC50 of 0.99 µM.

In the case of `CN(C)C(=O)c1ccc(N2CCC(CCCN(C)C(=O)[C@@]3(c4ccccc4F)CCCO3)CC2)nc1Cl` [Example 1-5, (S)-2-chloro-6-(4-(3-(2-(2-fluorophenyl)-N-methyl-tetrahydrofuran-2-carboxamido)propyl)piperidin-1-yl)-N,N-dimethylnicotinamide], the “LXR alpha IP (nM)” value in assay [1] is on record as “No IP”. Further, the Emax in assay [1] (setting [3]) was 6%; in assay [2] (setting [4]) it was 82%. This compound also gave a 50% effective concentration (EC50) in assay [2] of 0.055 µM.

As to `CN(C)C(=O)c1ccc(N2CCC([C@@H]3C[C@H]3CN(C)C(=O)[C@@](O)(c3ccccc3)C(F)(F)F)CC2)nc1Cl` [Example 15-16, 2-chloro-N,N-dimethyl-6-(4-((1S,2R)-2-(((S)-3,3,3-trifluoro-2-hydroxy-N-methyl-2-phenylpropanamido)methyl)cyclopropyl)piperidin-1-yl)nicotinamide], the “LXR alpha IP (nM)” value in assay [1] is recorded as “No IP”. In addition, the figures for the Emax in assay [1] (setting [3]) and in assay [2] (setting [4]) were 0% and 58%, respectively. In assay [2], this compound yielded a 50% effective concentration (EC50) of 0.583 µM.

On to `Cc1cccc([C@@](O)(C(=O)N(C)CCCC2CCN(c3ccc(C(=O)N(C)C)c(Cl)n3)CC2)C(F)(F)F)c1` [Example 1-15, (R)-2-chloro-N,N-dimethyl-6-(4-(3-(3,3,3-trifluoro-2-hydroxy-N-methyl-2-m-tolylpropanamido)propyl)piperidin-1-yl)nicotinamide], for which the “LXR alpha IP (nM)” value in assay [1] is “No IP”. The figures for the Emax in assay [1] (setting [3]) and in assay [2] (setting [4]) were 0% and 55%, respectively. The midpoint of the response in assay [2], the EC50, lay at 0.076 µM.

As for `COc1cccc([C@@](O)(C(=O)NCCCC2CCN(c3ccc(C(=O)N(C)C)c(Cl)n3)CC2)C(F)(F)F)c1` [Example 5-23, (R)-2-chloro-N,N-dimethyl-6-(4-(3-(3,3,3-trifluoro-2-hydroxy-2-(3-methoxyphenyl)propanamido)propyl)piperidin-1-yl) nicotinamide], the “LXR alpha IP (nM)” value in assay [1] is recorded as “No IP”. Also, the “LXR alpha actiivty at max dose (%)” value in assay [1] (setting [3]) was determined as 16%. In assay [2], the EC50 was determined as 0.275 µM. Also, in assay [2] (setting [4]), the “LXR beta actiivty at max dose (%)” value was found to be 73%.

Consider `CN(C)C(=O)c1ccc(N2CCC(CCCN(C)C(=O)C3(c4ccccc4)CCOCC3)CC2)nc1Cl` [Example 1-17, 2-chloro-N,N-dimethyl-6-(4-(3-(N-methyl-4-phenyl-tetrahydro-2H-pyran-4-carboxamido)propyl)piperidin-1-yl)nicotinamide], for which, in assay [1], the “LXR alpha IP (nM)” value was “No IP”. The Emax in assay [1] (setting [3]) came out at 7%; in assay [2] (setting [4]), 55%. In assay [2], this compound showed an EC50 of 0.29 µM.

For the compound `COc1cccc([C@@](O)(C(=O)Nc2cccc(C3CCN(c4ccc(C(=O)N(C)C)c(Cl)n4)CC3)c2)C(F)(F)F)c1` [Example 10-4, (R)-2-chloro-N,N-dimethyl-6-(4-(3-(3,3,3-trifluoro-2-hydroxy-2-(3-methoxyphenyl)propanamido)phenyl)piperidin-1-yl)nicotinamide], in assay [1], the “LXR alpha IP (nM)” value is listed as “No IP”. Besides, the Emax in assay [1] (setting [3]) worked out at 0%; in assay [2] (setting [4]), 49%. This compound also had a concentration giving a half-maximal response (EC50) in assay [2] of 0.649 µM.

For the compound `COc1cccc([C@@](O)(C(=O)N(C)CCCC2CCN(c3ccc(C(=O)N(C)C4CC4)c(Cl)n3)CC2)C(F)(F)F)c1` [Example 2-3, (R)-2-chloro-N-cyclopropyl-N-methyl-6-(4-(3-(3,3,3-trifluoro-2-hydroxy-2-(3-methoxyphenyl)-N-methylpropanamido)propyl)piperidin-1-yl)nicotinamide], in assay [1], the “LXR alpha IP (nM)” value was “No IP”. Further, the Emax in assay [1] (setting [3]) came out at 0%; in assay [2] (setting [4]), 42%. Also, in assay [2], the midpoint of the response, the EC50, lay at 0.107 µM.
